Legend:
[1] = test system: SK-LU-1 cells; assay: Cell viability (CellTiter-Glo), SK-LU-1; type: cell-based; conditions: Homo sapiens, SK-LU-1, 144 h; cell viability after 6 days
Procedure: All cell lines (HT29, A427, A498, SKLU-1) were obtained from the American Type Culture Collection (ATCC), maintained in the recommended media supplemented with 10% (v/v) FBS, 1% (v/v) Penicillin/streptomycin and kept at 37° C. in a humidified atmosphere with 5% CO2. Cells were seeded in 96 wp format typically at a seeding density of 3500-5000 cells/well and treated after 24 hours with increasing concentration of compound from 0 to 100 μM in ½ log unit increments. Cell viability was assessed after 72 hours (HT29, A427) or after 6 days (SKLU-1, A498) by CellTiter-Glo® as recommended by the manufacturer's instructions (Promega). Analysis and EC50 values were derived using GraphPadPrism.

[2] = target: ABL1 (Homo sapiens (Human), UniProt P00519); assay: SelectScreen Kinase Profiling: ABL1; type: biochemical; conditions: tested at 300-350 nM
From the text: (§1) Table 4 below highlights the selectivity of a representative compound of the invention, Example 5, against a panel of 50 kinases (assessed using the Invitrogen SelectScreen® Kinase Profiling Service).

[3] = target: ACVR1B (ALK4) (Homo sapiens (Human), UniProt P36896); assay: SelectScreen Kinase Profiling: ACVR1B (ALK4); type: biochemical; conditions: tested at 300-350 nM
From the text: as §1

[4] = target: AKT1 (PKB alpha) (Homo sapiens (Human), UniProt P31749); assay: SelectScreen Kinase Profiling: AKT1 (PKB alpha); type: biochemical; conditions: tested at 300-350 nM
From the text: as §1

[5] = target: AURKA (Aurora A) (Homo sapiens (Human), UniProt O14965); assay: SelectScreen Kinase Profiling: AURKA (Aurora A); type: biochemical; conditions: tested at 300-350 nM
From the text: as §1

[6] = target: CDK1/cyclin B (Homo sapiens (Human), UniProt P06493); assay: SelectScreen Kinase Profiling: CDK1/cyclin B; type: biochemical; conditions: tested at 300-350 nM
From the text: as §1

[7] = target: CHEK1 (CHK1) (Homo sapiens (Human), UniProt O14757); assay: SelectScreen Kinase Profiling: CHEK1 (CHK1); type: biochemical; conditions: tested at 300-350 nM
From the text: as §1

[8] = target: CSNK1G2 (CK1 gamma 2) (Homo sapiens (Human), UniProt P78368); assay: SelectScreen Kinase Profiling: CSNK1G2 (CK1 gamma 2); type: biochemical; conditions: tested at 300-350 nM
From the text: as §1

[9] = target: CSNK2A1 (CK2 alpha 1) (Homo sapiens (Human), UniProt P68400); assay: SelectScreen Kinase Profiling: CSNK2A1 (CK2 alpha 1); type: biochemical; conditions: tested at 300-350 nM
Chain of CSNK2A1 (CK2 alpha 1) (P68400 whole entry): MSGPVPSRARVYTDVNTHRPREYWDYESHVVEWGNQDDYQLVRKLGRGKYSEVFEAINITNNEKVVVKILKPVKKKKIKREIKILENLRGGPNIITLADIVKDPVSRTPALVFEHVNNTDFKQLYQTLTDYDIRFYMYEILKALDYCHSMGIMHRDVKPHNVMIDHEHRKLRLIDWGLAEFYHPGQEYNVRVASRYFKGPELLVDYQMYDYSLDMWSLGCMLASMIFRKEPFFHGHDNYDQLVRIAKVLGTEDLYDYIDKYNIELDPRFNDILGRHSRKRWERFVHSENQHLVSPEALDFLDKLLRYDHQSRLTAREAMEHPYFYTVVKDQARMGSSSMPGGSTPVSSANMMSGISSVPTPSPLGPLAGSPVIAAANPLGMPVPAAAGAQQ
From the text: as §1

[10] = target: EGFR (ErbB1) (Homo sapiens (Human), UniProt P00533); assay: SelectScreen Kinase Profiling: EGFR (ErbB1); type: biochemical; conditions: tested at 300-350 nM
From the text: as §1

[11] = target: EPHA2 (Homo sapiens (Human), UniProt P29317); assay: SelectScreen Kinase Profiling: EPHA2; type: biochemical; conditions: tested at 300-350 nM
From the text: as §1

[12] = target: ERBB2 (HER2) (Homo sapiens (Human), UniProt P04626); assay: SelectScreen Kinase Profiling: ERBB2 (HER2); type: biochemical; conditions: tested at 300-350 nM
Chain of ERBB2 (HER2) (P04626 23-1255): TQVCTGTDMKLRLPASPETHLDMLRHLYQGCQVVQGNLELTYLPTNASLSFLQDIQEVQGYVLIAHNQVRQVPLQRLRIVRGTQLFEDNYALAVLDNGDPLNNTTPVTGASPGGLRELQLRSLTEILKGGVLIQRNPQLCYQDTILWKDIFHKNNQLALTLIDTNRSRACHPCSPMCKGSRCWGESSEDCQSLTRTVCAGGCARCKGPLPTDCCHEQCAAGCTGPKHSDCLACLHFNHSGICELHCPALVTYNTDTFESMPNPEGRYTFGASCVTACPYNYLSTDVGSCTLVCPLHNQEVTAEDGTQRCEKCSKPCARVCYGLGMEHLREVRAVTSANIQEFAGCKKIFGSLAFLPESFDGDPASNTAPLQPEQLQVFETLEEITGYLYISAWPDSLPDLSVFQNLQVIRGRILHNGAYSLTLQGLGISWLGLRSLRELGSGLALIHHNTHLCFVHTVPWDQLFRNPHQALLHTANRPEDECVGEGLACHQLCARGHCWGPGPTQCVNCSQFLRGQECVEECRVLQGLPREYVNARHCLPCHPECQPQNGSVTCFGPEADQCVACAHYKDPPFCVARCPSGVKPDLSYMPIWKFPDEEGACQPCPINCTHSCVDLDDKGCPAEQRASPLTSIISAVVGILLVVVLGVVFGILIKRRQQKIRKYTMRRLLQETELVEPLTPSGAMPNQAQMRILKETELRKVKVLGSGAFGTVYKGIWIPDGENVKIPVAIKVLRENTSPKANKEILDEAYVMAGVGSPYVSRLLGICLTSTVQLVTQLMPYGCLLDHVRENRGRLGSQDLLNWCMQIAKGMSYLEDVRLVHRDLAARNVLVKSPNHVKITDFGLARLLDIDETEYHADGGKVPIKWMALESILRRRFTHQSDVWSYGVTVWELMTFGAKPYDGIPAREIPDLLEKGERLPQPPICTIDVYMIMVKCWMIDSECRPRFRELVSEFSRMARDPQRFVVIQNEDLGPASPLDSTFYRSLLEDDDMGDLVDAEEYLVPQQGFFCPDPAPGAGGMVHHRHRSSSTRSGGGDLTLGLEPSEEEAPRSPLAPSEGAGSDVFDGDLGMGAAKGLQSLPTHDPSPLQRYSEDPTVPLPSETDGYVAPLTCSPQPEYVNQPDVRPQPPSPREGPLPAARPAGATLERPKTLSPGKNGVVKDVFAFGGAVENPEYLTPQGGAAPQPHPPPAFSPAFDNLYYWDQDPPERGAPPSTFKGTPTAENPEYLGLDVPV
From the text: as §1

[13] = target: FGFR1 (Homo sapiens (Human), UniProt P11362); assay: SelectScreen Kinase Profiling: FGFR1; type: biochemical; conditions: tested at 300-350 nM
From the text: as §1

[14] = target: IGF1R (Homo sapiens (Human), UniProt P08069); assay: SelectScreen Kinase Profiling: IGF1R; type: biochemical; conditions: tested at 300-350 nM
From the text: as §1

[15] = target: IKBKB (IKK beta) (Homo sapiens (Human), UniProt O14920); assay: SelectScreen Kinase Profiling: IKBKB (IKK beta); type: biochemical; conditions: tested at 300-350 nM
From the text: as §1

[16] = target: INSR (Homo sapiens (Human), UniProt P06213); assay: SelectScreen Kinase Profiling: INSR; type: biochemical; conditions: tested at 300-350 nM
Chain of INSR (P06213 28-1382): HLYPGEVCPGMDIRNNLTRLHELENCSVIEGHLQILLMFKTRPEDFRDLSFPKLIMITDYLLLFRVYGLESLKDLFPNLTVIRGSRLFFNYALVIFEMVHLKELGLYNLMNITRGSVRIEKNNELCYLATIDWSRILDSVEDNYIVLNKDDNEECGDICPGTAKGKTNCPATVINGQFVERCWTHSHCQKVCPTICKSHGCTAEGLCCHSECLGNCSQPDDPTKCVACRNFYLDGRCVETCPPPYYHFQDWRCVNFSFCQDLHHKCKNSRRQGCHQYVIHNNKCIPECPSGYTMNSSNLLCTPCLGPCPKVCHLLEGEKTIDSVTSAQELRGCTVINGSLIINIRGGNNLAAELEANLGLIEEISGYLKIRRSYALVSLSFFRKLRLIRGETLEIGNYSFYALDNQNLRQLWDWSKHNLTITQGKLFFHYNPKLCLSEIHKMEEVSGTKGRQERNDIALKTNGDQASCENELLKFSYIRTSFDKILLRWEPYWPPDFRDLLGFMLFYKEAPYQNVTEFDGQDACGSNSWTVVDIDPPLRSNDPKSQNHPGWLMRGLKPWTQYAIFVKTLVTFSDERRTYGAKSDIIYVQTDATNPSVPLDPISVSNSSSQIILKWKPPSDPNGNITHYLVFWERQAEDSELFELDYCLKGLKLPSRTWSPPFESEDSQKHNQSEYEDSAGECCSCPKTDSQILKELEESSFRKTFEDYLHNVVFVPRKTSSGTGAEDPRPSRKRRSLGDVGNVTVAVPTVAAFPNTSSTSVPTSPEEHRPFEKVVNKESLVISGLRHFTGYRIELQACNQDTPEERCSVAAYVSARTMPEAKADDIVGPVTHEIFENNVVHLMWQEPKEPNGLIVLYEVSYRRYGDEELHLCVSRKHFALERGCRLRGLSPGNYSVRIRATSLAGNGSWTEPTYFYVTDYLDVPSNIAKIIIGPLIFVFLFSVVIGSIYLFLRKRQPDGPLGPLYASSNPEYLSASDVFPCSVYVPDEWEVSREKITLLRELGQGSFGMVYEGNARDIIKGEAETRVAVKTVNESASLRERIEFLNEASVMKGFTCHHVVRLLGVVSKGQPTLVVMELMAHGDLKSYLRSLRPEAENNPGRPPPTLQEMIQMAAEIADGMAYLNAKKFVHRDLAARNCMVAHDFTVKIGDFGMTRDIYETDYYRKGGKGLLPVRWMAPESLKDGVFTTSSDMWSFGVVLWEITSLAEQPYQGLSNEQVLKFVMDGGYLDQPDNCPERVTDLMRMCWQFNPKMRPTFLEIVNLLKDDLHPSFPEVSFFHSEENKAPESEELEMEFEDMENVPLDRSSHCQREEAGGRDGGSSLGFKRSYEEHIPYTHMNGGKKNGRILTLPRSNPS
From the text: as §1

[17] = target: JAK3 (Homo sapiens (Human), UniProt P52333); assay: SelectScreen Kinase Profiling: JAK3; type: biochemical; conditions: tested at 300-350 nM
From the text: as §1

[18] = target: KIT (Homo sapiens (Human), UniProt P10721); assay: SelectScreen Kinase Profiling: KIT; type: biochemical; conditions: tested at 300-350 nM
From the text: as §1

[19] = target: MAP2K1 (MEK1) (Homo sapiens (Human), UniProt Q02750); assay: SelectScreen Kinase Profiling: MAP2K1 (MEK1); type: biochemical; conditions: tested at 300-350 nM
From the text: as §1

[20] = target: MAPK1 (ERK2) (Homo sapiens (Human), UniProt P28482); assay: SelectScreen Kinase Profiling: MAPK1 (ERK2); type: biochemical; conditions: tested at 300-350 nM
Chain of MAPK1 (ERK2) (P28482 whole entry): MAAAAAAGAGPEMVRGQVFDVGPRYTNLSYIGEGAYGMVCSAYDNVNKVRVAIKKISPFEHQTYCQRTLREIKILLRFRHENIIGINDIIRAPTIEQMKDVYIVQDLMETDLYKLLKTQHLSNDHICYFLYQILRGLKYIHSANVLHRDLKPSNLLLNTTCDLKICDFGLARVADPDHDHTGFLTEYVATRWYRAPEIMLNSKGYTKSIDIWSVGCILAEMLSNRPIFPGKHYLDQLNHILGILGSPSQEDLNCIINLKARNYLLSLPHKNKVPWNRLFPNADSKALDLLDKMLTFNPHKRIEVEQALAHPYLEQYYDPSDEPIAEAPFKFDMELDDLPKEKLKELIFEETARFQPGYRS
From the text: as §1

[21] = target: MAPK8 (JNK1) (Homo sapiens (Human), UniProt P45983); assay: SelectScreen Kinase Profiling: MAPK8 (JNK1); type: biochemical; conditions: tested at 300-350 nM
From the text: as §1

[22] = target: MARK2 (Homo sapiens (Human), UniProt Q7KZI7); assay: SelectScreen Kinase Profiling: MARK2; type: biochemical; conditions: tested at 300-350 nM
From the text: as §1

[23] = target: NEK1 (Homo sapiens (Human), UniProt Q96PY6); assay: SelectScreen Kinase Profiling: NEK1; type: biochemical; conditions: tested at 300-350 nM
From the text: as §1

[24] = target: PDGFRB (PDGFR beta) (Homo sapiens (Human), UniProt P09619); assay: SelectScreen Kinase Profiling: PDGFRB (PDGFR beta); type: biochemical; conditions: tested at 300-350 nM
From the text: as §1

[25] = target: PHKG2 (Homo sapiens (Human), UniProt P15735); assay: SelectScreen Kinase Profiling: PHKG2; type: biochemical; conditions: tested at 300-350 nM
From the text: as §1

[26] = target: PIM1 (Homo sapiens (Human), UniProt P11309); assay: SelectScreen Kinase Profiling: PIM1; type: biochemical; conditions: tested at 300-350 nM
From the text: as §1

[27] = target: RET (Homo sapiens (Human), UniProt P07949); assay: SelectScreen Kinase Profiling: RET; type: biochemical; conditions: tested at 300-350 nM
Chain of RET (P07949 29-1114): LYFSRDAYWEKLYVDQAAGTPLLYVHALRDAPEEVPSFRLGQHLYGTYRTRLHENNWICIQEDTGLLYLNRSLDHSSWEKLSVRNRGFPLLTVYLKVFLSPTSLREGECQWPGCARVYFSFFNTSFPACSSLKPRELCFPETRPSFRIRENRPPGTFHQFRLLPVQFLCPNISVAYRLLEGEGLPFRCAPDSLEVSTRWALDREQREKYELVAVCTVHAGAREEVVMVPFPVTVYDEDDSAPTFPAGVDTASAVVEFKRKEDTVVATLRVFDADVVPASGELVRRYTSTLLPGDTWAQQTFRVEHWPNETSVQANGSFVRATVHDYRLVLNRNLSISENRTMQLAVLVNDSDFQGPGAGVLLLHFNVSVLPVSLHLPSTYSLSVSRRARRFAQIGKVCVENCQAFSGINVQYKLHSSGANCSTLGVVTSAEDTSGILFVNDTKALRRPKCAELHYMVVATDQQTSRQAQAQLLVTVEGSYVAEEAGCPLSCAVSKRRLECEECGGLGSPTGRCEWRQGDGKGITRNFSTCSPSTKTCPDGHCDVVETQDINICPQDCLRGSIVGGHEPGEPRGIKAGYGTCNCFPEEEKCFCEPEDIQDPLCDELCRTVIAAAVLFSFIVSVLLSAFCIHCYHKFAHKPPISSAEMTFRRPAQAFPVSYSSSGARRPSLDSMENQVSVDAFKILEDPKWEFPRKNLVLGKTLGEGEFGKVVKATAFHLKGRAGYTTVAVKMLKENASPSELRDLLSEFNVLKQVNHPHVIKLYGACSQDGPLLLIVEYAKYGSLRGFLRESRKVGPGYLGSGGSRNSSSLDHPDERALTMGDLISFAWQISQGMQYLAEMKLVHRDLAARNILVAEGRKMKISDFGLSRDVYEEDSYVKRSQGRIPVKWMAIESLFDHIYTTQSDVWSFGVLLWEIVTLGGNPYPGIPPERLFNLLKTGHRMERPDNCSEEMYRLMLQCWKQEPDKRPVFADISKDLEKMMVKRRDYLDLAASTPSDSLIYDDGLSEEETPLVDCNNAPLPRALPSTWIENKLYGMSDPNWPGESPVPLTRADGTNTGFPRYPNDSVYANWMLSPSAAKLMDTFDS

[28] = target: ROCK1 (Homo sapiens (Human), UniProt Q13464); assay: SelectScreen Kinase Profiling: ROCK1; type: biochemical; conditions: tested at 300-350 nM
From the text: as §1

[29] = target: RPS6KB1 (p70S6K) (Homo sapiens (Human), UniProt P23443); assay: SelectScreen Kinase Profiling: RPS6KB1 (p70S6K); type: biochemical; conditions: tested at 300-350 nM
Chain of RPS6KB1 (p70S6K) (P23443 whole entry): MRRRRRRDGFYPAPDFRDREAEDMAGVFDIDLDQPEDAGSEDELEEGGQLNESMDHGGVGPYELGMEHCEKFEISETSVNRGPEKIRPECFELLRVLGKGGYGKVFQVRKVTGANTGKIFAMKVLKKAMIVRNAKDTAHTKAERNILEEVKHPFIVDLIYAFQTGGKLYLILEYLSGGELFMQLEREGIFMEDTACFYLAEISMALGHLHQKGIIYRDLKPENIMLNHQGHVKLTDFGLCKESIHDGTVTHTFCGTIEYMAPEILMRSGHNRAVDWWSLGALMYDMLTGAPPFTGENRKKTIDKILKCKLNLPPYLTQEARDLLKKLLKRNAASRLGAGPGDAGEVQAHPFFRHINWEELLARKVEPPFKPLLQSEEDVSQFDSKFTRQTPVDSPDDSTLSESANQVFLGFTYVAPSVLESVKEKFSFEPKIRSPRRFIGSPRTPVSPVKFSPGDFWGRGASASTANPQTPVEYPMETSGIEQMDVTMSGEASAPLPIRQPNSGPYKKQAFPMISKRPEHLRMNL
From the text: as §1

[30] = target: SRC (Homo sapiens (Human), UniProt P12931); assay: SelectScreen Kinase Profiling: SRC; type: biochemical; conditions: tested at 300-350 nM
From the text: as §1

[31] = target: TEK (Tie2) (Homo sapiens (Human), UniProt Q02763); assay: SelectScreen Kinase Profiling: TEK (Tie2); type: biochemical; conditions: tested at 300-350 nM
From the text: as §1

- EC50 [1]: 12 nM
SMILES: C=CCn1c(=O)c2cnc(Nc3ccc(N4CCN(C)CC4)cc3)nc2n1-c1cccc(N=S(C)(C)=O)n1 [Example 5, 1-(6-{[Dimethyl(oxo)-λ^6-sulfanylidene]amino}pyridine-2-yl)-6-{[4-(4-methylpiperazin-1-yl)phenyl]amino}-2-(prop-2-en-1-yl)-1H,2H,3H-pyrazolo[3,4-d]pyrimidin-3-one]
- inhibition of ABL1 [2]: − (inhibition under 50% (tested at 300-350 nM))
- inhibition of ACVR1B (ALK4) [3]: − (inhibition under 50% (tested at 300-350 nM))
- inhibition of AKT1 (PKB alpha) [4]: − (inhibition under 50% (tested at 300-350 nM))
- inhibition of AURKA (Aurora A) [5]: − (inhibition under 50% (tested at 300-350 nM))
- inhibition of CDK1/cyclin B [6]: − (inhibition under 50% (tested at 300-350 nM))
- inhibition of CHEK1 (CHK1) [7]: − (inhibition under 50% (tested at 300-350 nM))
- inhibition of CSNK1G2 (CK1 gamma 2) [8]: − (inhibition under 50% (tested at 300-350 nM))
- inhibition of CSNK2A1 (CK2 alpha 1) [9]: − (inhibition under 50% (tested at 300-350 nM))
- inhibition of EGFR (ErbB1) [10]: − (inhibition under 50% (tested at 300-350 nM))
- inhibition of EPHA2 [11]: − (inhibition under 50% (tested at 300-350 nM))
- inhibition of ERBB2 (HER2) [12]: − (inhibition under 50% (tested at 300-350 nM))
- inhibition of FGFR1 [13]: − (inhibition under 50% (tested at 300-350 nM))
- inhibition of IGF1R [14]: − (inhibition under 50% (tested at 300-350 nM))
- inhibition of IKBKB (IKK beta) [15]: − (inhibition under 50% (tested at 300-350 nM))
- inhibition of INSR [16]: − (inhibition under 50% (tested at 300-350 nM))
- inhibition of JAK3 [17]: − (inhibition under 50% (tested at 300-350 nM))
- inhibition of KIT [18]: − (inhibition under 50% (tested at 300-350 nM))
- inhibition of MAP2K1 (MEK1) [19]: − (inhibition under 50% (tested at 300-350 nM))
- inhibition of MAPK1 (ERK2) [20]: − (inhibition under 50% (tested at 300-350 nM))
- inhibition of MAPK8 (JNK1) [21]: − (inhibition under 50% (tested at 300-350 nM))
- inhibition of MARK2 [22]: − (inhibition under 50% (tested at 300-350 nM))
- inhibition of NEK1 [23]: − (inhibition under 50% (tested at 300-350 nM))
- inhibition of PDGFRB (PDGFR beta) [24]: − (inhibition under 50% (tested at 300-350 nM))
- inhibition of PHKG2 [25]: − (inhibition under 50% (tested at 300-350 nM))
- inhibition of PIM1 [26]: − (inhibition under 50% (tested at 300-350 nM))
- inhibition of RET [27]: − (inhibition under 50% (tested at 300-350 nM))
- inhibition of ROCK1 [28]: − (inhibition under 50% (tested at 300-350 nM))
- inhibition of RPS6KB1 (p70S6K) [29]: − (inhibition under 50% (tested at 300-350 nM))
- inhibition of SRC [30]: − (inhibition under 50% (tested at 300-350 nM))
- inhibition of TEK (Tie2) [31]: − (inhibition under 50% (tested at 300-350 nM))

Source: patent US10766902B2, “Wee-1 inhibiting pyrazolopyrimidinone compounds” (ALMAC DISCOVERY LIMITED, priority 2016, dated 2020)
